# According to article PMC7661526, “Antibiofilm effects of N,O-acetals derived from 2-amino-1,4-naphthoquinone are associated with downregulation of important global virulence regulators in methicillin-resistant Staphylococcus aureus” (Scientific Reports, 2020):
# “And” between values parts separate entries of the source, which are not always exact repeats. Equal values may be shown once. Read-outs that look alike come from different tables or passages of the source.
# Columns and labels:
# [1] = tested on: MRSA strain BMB9393; assay: Autolytic system: extracellular DNA (eDNA) in supernatant; format: cell-based, Staphylococcus aureus; conditions: 1/4MIC, 7b stated relative to 7c
# [2] = tested on: MRSA strain BMB9393 biofilm; assay: Confocal laser scanning microscopy (CLSM) of biofilm; format: cell-based, Staphylococcus aureus; conditions: 1/4MIC (7b 32 µg/mL, 7c 16 µg/mL); SYTO 9; compared with untreated biofilms
# Procedure: For CLSM experiments, after 24 h of incubation, the supernatant containing planktonic cells was gently removed, and biofilm treated with 25 nM SYTO 9 DNA-intercalating stain (Invitrogen; Carlsbad, CA, EUA), as previously described. Before visualization, SYTO 9 solution was removed and the material visualized using a confocal laser scanning microscope (Model LSM510 Carl Zeiss Meditec; Jena, Germany). The microscope was configured with the argon laser (458 nm/477 nm/488 nm/514 nm). The images were randomly captured with the […]. Controls were performed using 2% (v/v) DMSO only (final concentration). Three independent experiments were performed in quadruplicate.
# [3] = tested on: MRSA ST239-SCCmecIII (BMB9393); assay: Disk diffusion test; format: cell-based, Staphylococcus aureus
# [4] = tested on: MRSA strain BMB9393 biofilm; assay: Biofilm development on polystyrene, crystal violet; format: cell-based, Staphylococcus aureus; conditions: 1/4MIC (7b 32 µg/mL, 7c 16 µg/mL); strain BMB9393, 24 h, crystal violet
# Procedure: Biofilms were formed on polystyrene surfaces using the BEC representative, strain BMB9393. […] The same volume of the bacterial culture in TSB-Glu (37 °C/18 h; at 250 rpm) diluted 1/100 in the same broth was added to the wells. After incubation (37 °C/24 h), supernatants were gently removed, rinsed with distilled water, and treated with crystal violet solution as described. […] Eight independent tests with three replicates each were performed. Controls were inoculated with the same bacterial inoculum but using only TSB-Glu with 2% (v/v) DMSO, final concentration.
# [5] = tested on: hla
# [6] = tested on: sarA; assay: Real-time RT-qPCR of global regulators; format: cell-based, Staphylococcus aureus
# [7] = tested on: rnaIII; assay: Real-time RT-qPCR of global regulators; format: cell-based, Staphylococcus aureus
# [8] = tested on: S. aureus ATCC 25923; assay: MIC, broth microdilution; format: cell-based, Staphylococcus aureus
# Text: Strain representatives of six globally spread clones/lineages of MRSA were used in this study to test the antimicrobial activity of the N,O-acetal derivatives against MRSA: NY/Japan-USA100/ST5-SCCmecII (strain CR15-071), USA300/ST8-SCCmecIV (strain USA300-0114), USA400/ST1-SCCmecIV (strain USA400-0051), Brazilian epidemic clone-BEC/ST239-SCCmecIII (strain BMB9393), pediatric clone-USA800/ST5-SCCmecIV (strain USA800-0179), and OSPC-USA1100/ST30-SCCmecIV (strain 07-040). The S. aureus ATCC 25923 was used as a control for the experiment of drug susceptibility. […] For biofilm production, tryptic soy broth (TSB; BD, Franklin Lakes, NJ, USA) was supplemented with 1% (w/v) glucose (TSB-Glu). Tryptic soy agar (TSA; BD) was used for bacterial growth. The Mueller-Hinton broth (MHB; BD) and Mueller-Hinton agar (MHA; BD) was used for susceptibility tests. All strains were maintained in 10% (v/v) glycerol stocks and stored at − 80 °C.
# (§1) The antibacterial activity of 6a and its derivatives 7a, 7b, and 7c was tested as previously described using paper disks impregnated with each compound[13]. The derivatives were also analyzed quantitatively using microdilution assays in 96-well inert polystyrene microtiter plates (Nuclon; Nalge Nunc International, Rochester, NY, USA) to determine the minimal inhibitory concentration (MIC)[14]. Biological control, as well as growth conditions, were performed following CLSI recommendation[15],[16]. […] Controls were also performed using 2% (v/v) DMSO only.
# [9] = tested on: MRSA (ST1-SCCmecIV) (USA400); assay: Disk diffusion test; format: cell-based, Staphylococcus aureus
# [10] = tested on: MRSA ST5-SCCmecIV (USA800); assay: Disk diffusion test; format: cell-based, Staphylococcus aureus
# [11] = tested on: MRSA BEC (BMB9393); assay: microbe, parasite or virus in culture; format: cell-based, Staphylococcus aureus
# Procedure: (§2) For biofilm production, tryptic soy broth (TSB; BD, Franklin Lakes, NJ, USA) was supplemented with 1% (w/v) glucose (TSB-Glu). Tryptic soy agar (TSA; BD) was used for bacterial growth. The Mueller-Hinton broth (MHB; BD) and Mueller-Hinton agar (MHA; BD) was used for susceptibility tests. All strains were maintained in 10% (v/v) glycerol stocks and stored at − 80 °C.
# as §1, with “The” for “The antibacterial activity of 6a and its derivatives 7a, 7b, and 7c was tested as previously described using paper disks impregnated with each compound[13]. The”
# [12] = tested on: MRSA ST8-SCCmecIV (USA300); assay: Disk diffusion test; format: cell-based, Staphylococcus aureus
# [13] = tested on: sigB; assay: Real-time RT-qPCR of global regulators; format: cell-based, Staphylococcus aureus
# [14] = tested on: MRSA USA400 (USA400-0051); assay: MIC, broth microdilution; format: cell-based, Staphylococcus aureus
# Procedure: as §2
# as §1, with “The” for “The antibacterial activity of 6a and its derivatives 7a, 7b, and 7c was tested as previously described using paper disks impregnated with each compound[13]. The”
# [15] = tested on: MRSA OSPC-USA1100 (07-040); assay: MIC, broth microdilution; format: cell-based, Staphylococcus aureus
# Procedure: as §2
# as §1, with “The” for “The antibacterial activity of 6a and its derivatives 7a, 7b, and 7c was tested as previously described using paper disks impregnated with each compound[13]. The”
# [16] = tested on: MRSA Pediatric-USA800 (USA800-0179); assay: MIC, broth microdilution; format: cell-based, Staphylococcus aureus
# Procedure: as §2
# as §1, with “The” for “The antibacterial activity of 6a and its derivatives 7a, 7b, and 7c was tested as previously described using paper disks impregnated with each compound[13]. The”
# [17] = tested on: MRSA USA300 (USA300-0114); assay: MIC, broth microdilution; format: cell-based, Staphylococcus aureus
# Procedure: as §2
# as §1, with “The” for “The antibacterial activity of 6a and its derivatives 7a, 7b, and 7c was tested as previously described using paper disks impregnated with each compound[13]. The”
# [18] = tested on: MRSA NY/Japan-USA100 (CR15-071); assay: MIC, broth microdilution; format: cell-based, Staphylococcus aureus
# Procedure: as §2
# as §1, with “The” for “The antibacterial activity of 6a and its derivatives 7a, 7b, and 7c was tested as previously described using paper disks impregnated with each compound[13]. The”
# [19] = tested on: fnbA; assay: Real-time RT-qPCR of biofilm-associated genes; format: cell-based, Staphylococcus aureus
# [20] = tested on: mecA; assay: Real-time RT-qPCR of biofilm-associated genes; format: cell-based, Staphylococcus aureus
# [21] = tested on: atlA; assay: Autolytic system: atlA real-time qRT-PCR; format: cell-based, Staphylococcus aureus
# [22] = Table 2, used for SI, strain not given, values of 6a-7c equal those for BEC (BMB9393)
SMILES,Amount of eDNA in bacterial supernatant (cell lysis) [1],Biofilm accumulation by CLSM [2],Inhibition zone [3],Reduction of accumulated biofilm matrix [4],Reduction of hla expression [5],Reduction of sarA gene expression [6],Reduction of RNAIII transcripts [7],Inhibition zone [9],Inhibition zone [10],"MIC [11, 22]",Inhibition zone [12],Increase of sigB transcripts [13],Reduction of fnbA expression [19],mecA expression [20],Increase in atlA transcripts [21],other results
"C#CCOCNC1=CC(=O)c2ccccc2C1=O [7c, 2-(propynyloxymethyl)-amino-1,4-naphthoquinone]",increased,decrease biofilm accumulation massively,13±1.0 mm,75.6% ± 3.7% and 75%,86.5 ± 1.0%,no important effect,70.6 ± 2.2%,11±0.8 mm,13±1.0 mm,64 µg/mL,13±1.3 mm,57.22 ± 5.2%,24.64% ± 3.5%,not significantly affected,three-fold increase,"MIC ([8]; control strain S. aureus ATCC 25923): 16 µg/mL; MIC ([11]; broth microdilution, BEC (BMB9393)): 64 µg/mL; MIC ([14]; broth microdilution, USA400 (USA400-0051)): 64 µg/mL; MIC ([15]; broth microdilution, OSPC-USA1100 (07-040)): 128 µg/mL; MIC ([16]; broth microdilution, Pediatric-USA800 (USA800-0179)): 64 µg/mL; MIC ([17]; broth microdilution, USA300 (USA300-0114)): 64 µg/mL; MIC ([18]; broth microdilution, NY/Japan-USA100 (CR15-071)): 128 µg/mL"
"CCOCNC1=CC(=O)c2ccccc2C1=O [7b, 2-(ethoxymethyl)-amino-1,4-naphthoquinone]",even higher (about two-fold),decrease biofilm accumulation massively,10±1.0 mm,87.4% ± 1.9% and 88%,90.0 ± 0.6%,65.5 ± 6.0%,88.0 ± 1.1%,13±1.0 mm,13±0.5 mm,128 µg/mL,12±2.0 mm,did not affect,89.3% ± 1.5%,not significantly affected,3.5 times,"MIC ([8]; Staphylococcus aureus, ATCC25923, control strain S. aureus ATCC 25923, read-out: MIC): 64 µg/mL; MIC ([11]; Staphylococcus aureus, MRSA): 128 µg/mL; MIC ([14]; Staphylococcus aureus): 128 µg/mL; MIC ([15]; Staphylococcus aureus, MRSA): 256 µg/mL; MIC ([16]; Staphylococcus aureus): 256 µg/mL; MIC ([17]; Staphylococcus aureus): 64 µg/mL; MIC ([18]; Staphylococcus aureus): 128 µg/mL"
